{"source": "patent US4853221A", "about": "“Method for treating non-small cell lung cancer, head and neck cancers and breast cancer” (Warner-Lambert Company, priority 1987, dated 1989)", "key": {"[1]": {"test_system": "CD8F1 Mammary tumor", "experiment": "Antitumor activity against CD8F1 mammary tumor in mice", "assay_type": "in vivo, mouse", "settings": "for Tumor Weight Inhibition % TWI: Sc every 7 days, Days 1,8,15,22,19", "procedure": "(§1) The growth inhibition properties of 5-methyl-6-[[(3,4,5-trimethoxyphenyl)amino]methyl]-2,4-quinazolinediamine (trimetrexate) against several transplanted murine tumors were evaluated employing the antitumor screening program of the Drug Evaluation Branch of the National Cancer Institute. The protocols for these tests is described in Cancer Chemotherapy Reports, 3: 1-103 (1972). The dosing schedules are results from these tests appear in Table IV.\nMouse Mammary Tumor Was propagated in CD8F1 female mice as spontaneous tumors. Approximately 10^6 cells were then implanted subcutaneously into CD8F1 mice. […] At the end of the experiment (30 days), individual tumor weights were determined by caliper measurements. Each tumor weight was calculated as described previously for colon 26 and 38 tumors. A criterion of % T/C tumor weight of 42% or less was considered indicative of activity, with a reproducible 10% T/C tumor weight or less indicative of substantive activity.\n(§2) In all of the mouse tumor studies described above, routine controls consisted of matching ten normal mice (with no tumors) to each tumor-bearing treatment group and injecting them with the same drug at the same dosages, schedules, days of administration, and drug route as the tumor-bearing mice. In this way, drug-induced toxicity (lethality and weight loss) could be clearly separated from the effects of the drug on the tumors."}, "[2]": {"test_system": "Breast tumor", "experiment": "Human tumor cloning system, breast tumors", "assay_type": "cell-based", "settings": "one hour, 10 specimens", "description": "(§3) The activity of trimetrexate was compared with that of methotrexate in tests with a human tumor cloning system (Latham, et al., Proc. Am. Assoc. Cancer Res., 24: 278 (1983)). The data from these tests appear in Table III were the activities are expressed as the numbers of tumors with 50% or greater reduction in tumor colony forming units after one hour exposure to the drug."}, "[3]": {"test_system": "L5178Y", "experiment": "Inhibition of L5178Y cell growth in vitro", "assay_type": "cell-based, murine", "procedure": "(§4) Two leukemia cell lines (L1210 and L5178Y) and two solid tumor cell lines (Sarcoma 180 and Walker 256) were used in these studies.\n(§5) Logarithmically growing L1210 cells (approximately 3×10^5 cells/ml) were diluted with Fischer's medium (containing 10% horse serum) to an approximate concentration of 5×10^4 cells/ml. Cells were planted in duplicate into 15 ml culture tubes containing either no drug or various amounts of drug, and incubated for 48 hours at 37° C. before being counted.\n(§6) Trimetrexate was also evaluated in a similar manner side-by-side with methotrexate for its effect on the growth of three additional murine cell lines (L5178Y, Sarcoma-180, and Walkler-256) and three human cell lines (acute myelogenous leukemia K-562, T-cell 8402, and B-cell 8392), propagated in vitro."}, "[4]": {"test_system": "AML K-562", "experiment": "Inhibition of AML K-562 cell growth in vitro", "assay_type": "cell-based, human", "settings": "K562, 48 h; Human AML K-562; read-out: ED50 (the source's name)", "procedure": "as §5, §6"}, "[5]": {"test_system": "B-Cell 8392", "experiment": "Inhibition of B-Cell 8392 growth in vitro", "assay_type": "cell-based, human", "settings": "48 h; Human B-Cell 8392; read-out: ED50 (the source's name)", "procedure": "as §5, §6"}, "[6]": {"test_system": "Colon 26", "experiment": "Antitumor activity against colon adenocarcinoma 26 in mice", "assay_type": "in vivo, mouse", "settings": "for Life Span % ILS / Life Span % T/C: ip every 4 days, Days 1-5", "procedure": "as §1\nPercent increase in median life span (% ILS) values appearing in the tables were calculated from the formula; 100×(median life span in days of treated mice minus median life span in days of untreated mice) divided by median life span in days of untreated control mice. That is, % ILS=[100×(T-C)]/C. % T/C and %ILS are directly interconvertible by the formula % ILS=% T/C -100.\nColon adenocarcinoma Nos. 26 and 38. Colon adenocarcinoma 26 was propagated in Balb/cj mice for 12 to 15 days. After this time, 0.5 ml of a 1% tumor brei, prepared from several excised subcutaneously passaged tumors, was implanted intraperitoneally into CDF1 mice. Animals were treated with drug ip on Days 1 and 5 following tumor implantation. The median survival time of the treated animals was determined and expressed as a percentage of the median survival time of untreated control animals.\nas §2"}, "[7]": {"test_system": "transplanted rodent tumors which are resistant to methotrexate", "experiment": "Activity against methotrexate-resistant transplanted rodent tumors", "settings": "in vivo"}, "[8]": {"test_system": "murine tumor cell lines (L5178Y, Sarcoma-180, Walker-256)", "experiment": "Comparison with methotrexate against murine tumor cell lines in vitro", "assay_type": "cell-based", "settings": "all of the murine tumor cell lines tested", "procedure": "as §4, §5, §6"}, "[9]": {"test_system": "colon carcinoma", "experiment": "Phase I clinical trials, colon carcinoma", "assay_type": "in vivo, human", "settings": "single agent", "procedure": "(§7) Several Phase I clinical trials employing trimetrexate in human patients were carried out. In one study, 36 patients were treated with trimetrexate as a single agent at daily doses of 0.5 mg/m^2 /day to 12 mg/m^2 /day administered intravenously for five days.\n(§8) In additional Phase I clinical studies, patients were administered trimetrexate with single intravenous doses ranging between 5 and 450 mg/m^2 and with weekly doses of slightly greater than 100 mg/m^2."}, "[10]": {"test_system": "human cell lines (K-562, T-cell 8402, B-cell 8392)", "experiment": "Comparison with methotrexate against human cell lines in vitro", "assay_type": "cell-based", "procedure": "as §5, §6"}, "[11]": {"test_system": "Colon tumor", "experiment": "Human tumor cloning system, colon tumors", "assay_type": "cell-based", "settings": "one hour, 9 specimens", "description": "as §3"}, "[12]": {"test_system": "cancer of the pancreas", "experiment": "Phase I clinical trials, cancer of the pancreas", "assay_type": "in vivo, human", "settings": "single agent", "procedure": "as §7, §8"}, "[13]": {"test_system": "head and neck (squamous) cancers", "experiment": "Phase I clinical trials, head and neck (squamous) cancers", "assay_type": "in vivo, human", "settings": "single agent", "procedure": "as §7, §8"}, "[14]": {"test_system": "Ovarian tumor", "experiment": "Human tumor cloning system, ovarian tumors", "assay_type": "cell-based", "settings": "one hour, 6 specimens", "description": "as §3"}, "[15]": {"test_system": "human tumor cultures", "experiment": "Human tumor cloning system, all tumors", "assay_type": "cell-based", "settings": "for Number of Tumors with 50% or Greater Decrease in Tumor Colony Forming Units: Totals, one hour, 54 specimens", "description": "as §3"}, "[16]": {"settings": "optimal dose 30 mg/kg (dose range 120-3.75)"}, "[17]": {"settings": "optimal dose 60 mg/kg (dose range 120-3.75)"}}, "data": [{"smiles": "COc1cc(NCc2ccc3nc(N)nc(N)c3c2C)cc(OC)c1OC", "note": "[Trimetrexate, 5-methyl-6-[[(3,4,5-trimethoxyphenyl)amino]methyl]-2,4-quinazolinediamine]", "values": [{"measurement": "Tumor Weight Inhibition % TWI", "setting": "[1]; optimal dose 120 mg/kg (dose range 120-3.75)", "result": 100, "unit": "%"}, {"measurement": "Tumor Weight Inhibition % TWI", "setting": "[1]; optimal dose 180 mg/kg (dose range 270-35)", "result": 100, "unit": "%"}, {"measurement": "antitumor activity", "setting": "[1]; subcutaneously implanted", "result": "good activity"}, {"measurement": "Number of Tumors with 50% or Greater Decrease in Tumor Colony Forming Units", "setting": "[2]; trimetrexate 0.1 μg/ml", "result": 0}, {"measurement": "Number of Tumors with 50% or Greater Decrease in Tumor Colony Forming Units", "setting": "[2]; trimetrexate 1.0 μg/ml", "result": 2}, {"measurement": "IC50", "setting": "[3]; Mus musculus, 48 h, Murine L5178Y, read-out: ED50 (the source's name)", "result": 2, "unit": "nM"}, {"measurement": "potency relative to methotrexate", "setting": "[3]; on a molar basis", "result": "only slightly more effective on a molar basis"}, {"measurement": "IC50", "setting": "[4]", "result": 10, "unit": "nM"}, {"measurement": "IC50", "setting": "[5]", "result": 5, "unit": "nM"}, {"measurement": "antitumor activity", "setting": "[6]; mouse, in vivo", "result": "good activity"}, {"measurement": "Life Span % ILS", "setting": "[6]; [16]", "result": 56, "unit": "%"}, {"measurement": "Life Span % T/C", "setting": "[6]; [16]", "result": 156, "unit": "%"}, {"measurement": "Life Span % ILS", "setting": "[6]; [17]", "result": 115, "unit": "%"}, {"measurement": "Life Span % T/C", "setting": "[6]; [17]", "result": 215, "unit": "%"}, {"measurement": "activity against methotrexate-resistant transplanted rodent tumors", "setting": "[7]", "result": "activity against a variety of transplanted rodent tumors"}, {"measurement": "potency relative to methotrexate", "setting": "[8]", "result": "more potent than methotrexate"}, {"measurement": "patients with favorable responses", "setting": "[9]", "result": "four"}, {"measurement": "effectiveness relative to methotrexate", "setting": "[10]", "result": "more effective in inhibiting cell growth in vitro than was methotrexate"}, {"measurement": "Number of Tumors with 50% or Greater Decrease in Tumor Colony Forming Units", "setting": "[11]; trimetrexate 0.1 μg/ml", "result": 4}, {"measurement": "Number of Tumors with 50% or Greater Decrease in Tumor Colony Forming Units", "setting": "[11]; trimetrexate 1.0 μg/ml", "result": 4}, {"measurement": "patients with favorable responses", "setting": "[12]", "result": "one"}, {"measurement": "patients with favorable responses", "setting": "[13]", "result": "two"}, {"measurement": "Number of Tumors with 50% or Greater Decrease in Tumor Colony Forming Units", "setting": "[14]; trimetrexate 0.1 μg/ml", "result": 1}, {"measurement": "Number of Tumors with 50% or Greater Decrease in Tumor Colony Forming Units", "setting": "[14]; trimetrexate 1.0 μg/ml", "result": 1}, {"measurement": "Number of Tumors with 50% or Greater Decrease in Tumor Colony Forming Units", "setting": "[15]; trimetrexate 0.1 μg/ml", "result": 11}, {"measurement": "Number of Tumors with 50% or Greater Decrease in Tumor Colony Forming Units", "setting": "[15]; trimetrexate 1.0 μg/ml", "result": 13}, {"measurement": "human tumor cultures sensitive to trimetrexate and resistant to methotrexate", "setting": "[15]; trimetrexate 0.1 μg/ml, methotrexate 0.3 μg/ml, 8/54", "result": 15, "unit": "%"}]}]}
